Data reported in BindingDB's records for doi:10.1016/j.bmcl.2009.04.040 (The University of Texas Southwestern Medical Center At …, 2009).

biological target: Proto-oncogene Wnt-3 (Homo sapiens, UniProt P56703); assay: Inhibition of Wnt3 expressed in mouse L-cells assessed as inhibition of Wnt/catanin signaling pathway by luciferase reporter gene assay
Sequence (P56703 whole entry): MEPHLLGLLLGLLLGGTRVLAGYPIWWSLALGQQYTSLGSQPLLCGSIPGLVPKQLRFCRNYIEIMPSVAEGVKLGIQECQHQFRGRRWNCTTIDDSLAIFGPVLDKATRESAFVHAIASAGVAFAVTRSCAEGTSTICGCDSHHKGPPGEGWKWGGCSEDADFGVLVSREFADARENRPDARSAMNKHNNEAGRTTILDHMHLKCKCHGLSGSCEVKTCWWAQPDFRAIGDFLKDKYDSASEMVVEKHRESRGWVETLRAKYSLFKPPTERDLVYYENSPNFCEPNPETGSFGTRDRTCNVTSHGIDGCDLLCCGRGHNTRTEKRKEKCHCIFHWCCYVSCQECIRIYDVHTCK

Structure (SMILES)	EC50 [µM]
O=C(Nc1ccc(Cl)c(Cl)c1)c1ccc(-n2c(O)c3c(c2O)[C@H]2C=C[C@@H]3C2)cc1 [N-(3,4-Dichloro-phenyl)-4-((1R,2S,6R,7S)-dioxo-4-aza-tricyclo[5.2.1.0*2,6*]dec-8-en-4-yl)-benzamide]	5
O=C(Nc1cc(F)cc(F)c1)c1ccc(-n2c(O)c3c(c2O)[C@H]2C=C[C@@H]3C2)cc1 [N-(3,5-Difluoro-phenyl)-4-((1R,2S,6R,7S)-dioxo-4-aza-tricyclo[5.2.1.0*2,6*]dec-8-en-4-yl)-benzamide]	> 25
O=C(Nc1ccc(Cl)cc1Cl)c1ccc(-n2c(O)c3c(c2O)[C@H]2C=C[C@@H]3C2)cc1 [N-(2,4-Dichloro-phenyl)-4-((1R,2S,6R,7S)-dioxo-4-aza-tricyclo[5.2.1.0*2,6*]dec-8-en-4-yl)-benzamide]	10
Cc1ccc2cccnc2c1NC(=O)[C@H]1CC[C@H](N2C(=O)[C@@H]3[C@H](C2=O)[C@@H]2C=C[C@H]3C2)CC1 [4-((1R,2S,6R,7S)-3,5-Dioxo-4-aza-tricyclo[5.2.1.0*2,6*]dec-8-en-4-yl)-cyclohexanecarboxylic acid(7-methyl-quinolin-8-yl)-amide]	1
CN(C(=O)c1ccc(-n2c(O)c3c(c2O)[C@H]2C=C[C@@H]3C2)cc1)c1cccc2cccnc12 [4-((1R,2S,6R,7S)-3,5-Dioxo-4-aza-tricyclo[5.2.1.0*2,6*]dec-8-en-4-yl)-N-methyl-N-quinolin-8-yl-benzamide]	> 25
O=C1[C@@H]2[C@H](C(=O)N1C[C@H]1CC[C@H](C(=O)Nc3cccc4cccnc34)CC1)[C@@H]1C=C[C@H]2C1 [4-((1R,2S,6R,7S)-3,5-Dioxo-4-aza-tricyclo[5.2.1.0*2,6*]dec-8-en-4-ylmethyl)-cyclohexanecarboxylic acid quinolin-8-ylamide]	> 25
O=C(Nc1ccc(-n2c(O)c3c(c2O)[C@H]2C=C[C@@H]3C2)cc1)Nc1cccc2cccnc12 [1-[4-((1R,2S,6R,7S)-3,5-Dioxo-4-aza-tricyclo[5.2.1.0*2,6*]dec-8-en-4-yl)-phenyl]-3-quinolin-8-yl-urea]	> 25
O=C(NCc1ccccc1)c1ccc(-n2c(O)c3c(c2O)[C@H]2C=C[C@@H]3C2)cc1 [N-Benzyl-4-((1R,2S,6R,7S)-3,5-dioxo-4-aza-tricyclo[5.2.1.0*2,6*]dec-8-en-4-yl)-benzamide]	20
O=C(Nc1cccc2cccnc12)c1ccc(-n2c(O)c3c(c2O)[C@H]2C=C[C@@H]3C2)cc1Cl [2-Chloro-4-((1R,2S,6R,7S)-3,5-dioxo-4-aza-tricyclo[5.2.1.0*2,6*]dec-8-en-4-yl)-N-quinolin-8-yl-benzamide]	1
O=C(NCc1ccccn1)c1ccc(-n2c(O)c3c(c2O)[C@H]2C=C[C@@H]3C2)cc1 [4-((1R,2S,6R,7S)-3,5-Dioxo-4-aza-tricyclo[5.2.1.0*2,6*]dec-8-en-4-yl)-N-pyridin-2-ylmethyl-benzamide]	> 25
O=C(Nc1ccc(C(F)(F)F)cc1)c1ccc(-n2c(O)c3c(c2O)[C@H]2C=C[C@@H]3C2)cc1 [4-((1R,2S,6R,7S)-3,5-Dioxo-4-aza-tricyclo[5.2.1.0*2,6*]dec-8-en-4-yl)-N-(4-trifluoromethyl-phenyl)-benzamide]	> 25
O=C(NC1CCCCC1)c1ccc(-n2c(O)c3c(c2O)[C@H]2C=C[C@@H]3C2)cc1 [N-Cyclohexyl-4-((1R,2S,6R,7S)-3,5-dioxo-4-aza-tricyclo[5.2.1.0*2,6*]dec-8-en-4-yl)-benzamide]	> 25
